Key:
[1] = target: T1, HSP90α protein (Homo sapiens, UniProt P07900); test: HSP90α-binding FP (BODIPY) assay; conditions: FP competition with BODIPY-labeled RNK04010
T1 construct: purchased BPS Bioscience #50298
Method in brief: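 Fluorescence polarization measured competition with N-terminal human HSP90α, using either FITC-geldanamycin or BODIPY-labelled triazolone RNK04010 as tracer (5 nM final each). Compounds were tested in 2.5-fold dilutions from 20 μM to 5.2 nM, with incubation at 25 °C for 120 min (FITC) or 300 min (BODIPY).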

[2] = test system: U-87 MG human glioblastoma; test: U87 MG CCK-8 proliferation assay; type: cell-based; conditions: Homo sapiens, U-87 MG, 72 h, U-87 MG cells, read-out: U87MG CCK-8
Method in brief: (§1)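 Cells grown per ATCC recommendations were treated with 3-fold serial compound dilutions from 20 μM to 1.02 nM. CCK-8 absorbance was converted to % inhibition against DMSO-treated cells, with cell-free medium containing DMSO as the blank.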

[3] = test system: MV-4-11 human acute myeloid leukemia; test: MV-4-11 CCK-8 proliferation assay; type: cell-based; conditions: Homo sapiens, MV4-11; MV-4-11 cells, 72 hr
Method in brief: as §1

Row | Compound | IC50 [1] | EC50 [2] | EC50 [3]
1 | CCOc1cc(N2CCC(C(=O)N3CCC(CN4CCN(Cc5ccc(-n6c(C(=O)NC(CC)CC)nnc6-c6cc(CC)c(O)cc6O)cc5)CC4)CC3)CC2)ccc1Nc1ncc2c(n1)N(S(C)(=O)=O)c1ccccc1C(=O)N2C [Compound 084, 4-(4-((4-((1-(1-(3-ethoxy-4-((5-methyl-11-(methylsulfonyl)-6-oxo-6,11-dihydro-5H-benzo[e]pyrimido[5,4-b][1,4]diazepin-2-yl)amino)phenyl)piperidine-4-carbonyl)piperidin-4-yl)methyl)piperazin-1-yl)methyl)phenyl)-5-(5-ethyl-2,4-dihydroxyphenyl)-N-(pentan-3-yl)-4H-1,2,4-triazole-3-carboxamide] | 0.1 to 1 µM | 0.1 to 1 µM | < 0.1 µM
2 | CCOc1cc(N2CCC(C(=O)N3CCN(Cc4ccc(-n5c(O)nnc5-c5cc(C)c(O)cc5O)cc4)CC3)CC2)ccc1Nc1ncc2c(n1)N(S(C)(=O)=O)c1ccccc1C(=O)N2C [Compound 085, 2-((4-(4-(4-(4-(3-(2,4-dihydroxy-5-methylphenyl)-5-hydroxy-4H-1,2,4-triazol-4-yl)benzyl)piperazine-1-carbonyl)piperidin-1-yl)-2-ethoxyphenyl)amino)-5-methyl-11-(methylsulfonyl)-5,11-dihydro-6H-benzo[e]pyrimido[5,4-b][1,4]diazepin-6-one] | 0.1 to 1 µM | 0.1 to 1 µM | < 0.1 µM
3 | CCOc1cc(N2CCC(C(=O)N3CCN(Cc4ccc(-n5c(O)nnc5-c5cc(CC)c(O)cc5O)cc4)CC3)CC2)ccc1Nc1ncc2c(n1)N(S(C)(=O)=O)c1ccccc1C(=O)N2C [Compound 086, 2-((2-ethoxy-4-(4-(4-(4-(3-(5-ethyl-2,4-dihydroxyphenyl)-5-hydroxy-4H-1,2,4-triazol-4-yl)benzyl)piperazine-1-carbonyl)piperidin-1-yl)phenyl)amino)-5-methyl-11-(methylsulfonyl)-5,11-dihydro-6H-benzo[e]pyrimido[5,4-b][1,4]diazepin-6-one] | < 0.1 µM | 0.1 to 1 µM | < 0.1 µM
4 | CCCc1cc(-c2nnc(O)n2-c2ccc(CN3CCN(C(=O)C4CCN(c5ccc(Nc6ncc7c(n6)N(S(C)(=O)=O)c6ccccc6C(=O)N7C)c(OCC)c5)CC4)CC3)cc2)c(O)cc1O [Compound 087, 2-((4-(4-(4-(4-(3-(2,4-dihydroxy-5-propylphenyl)-5-hydroxy-4H-1,2,4-triazol-4-yl)benzyl)piperazine-1-carbonyl)piperidin-1-yl)-2-ethoxyphenyl)amino)-5-methyl-11-(methylsulfonyl)-5,11-dihydro-6H-benzo[e]pyrimido[5,4-b][1,4]diazepin-6-one] | 0.1 to 1 µM | 0.1 to 1 µM | < 0.1 µM
5 | CCOc1cc(N2CCC(C(=O)NCc3ccc(-n4c(O)nnc4-c4cc(CC)c(O)cc4O)cc3F)CC2)ccc1Nc1ncc2c(n1)N(S(C)(=O)=O)c1ccccc1C(=O)N2C [Compound 088, 1-(3-ethoxy-4-((5-methyl-11-(methylsulfonyl)-6-oxo-6,11-dihydro-5H-benzo[e]pyrimido[5,4-b][1,4]diazepin-2-yl)amino)phenyl)-N-(4-(3-(5-ethyl-2,4-dihydroxyphenyl)-5-hydroxy-4H-1,2,4-triazol-4-yl)-2-fluorobenzyl)piperidine-4-carboxamide] | 0.1 to 1 µM | > 1 µM | 0.1 to 1 µM
6 | CCOc1cc(N2CCC(C(=O)NCc3ccc(-n4c(O)nnc4-c4cc(CC)c(O)cc4O)cc3C(F)(F)F)CC2)ccc1Nc1ncc2c(n1)N(S(C)(=O)=O)c1ccccc1C(=O)N2C [Compound 089, 1-(3-ethoxy-4-((5-methyl-11-(methylsulfonyl)-6-oxo-6,11-dihydro-5H-benzo[e]pyrimido[5,4-b][1,4]diazepin-2-yl)amino)phenyl)-N-(4-(3-(5-ethyl-2,4-dihydroxyphenyl)-5-hydroxy-4H-1,2,4-triazol-4-yl)-2-(trifluoromethyl)benzyl)piperidine-4-carboxamide] | 0.1 to 1 µM | > 1 µM | 0.1 to 1 µM
7 | CCOc1cc(N2CCC(C(=O)NCCCNC(=O)O[C@H]3CC[C@H](Nc4cc(-n5nc(C(F)(F)F)c6c5CC(C)(C)CC6=O)ccc4C(N)=O)CC3)CC2)ccc1Nc1ncc2c(n1)N(S(C)(=O)=O)c1ccccc1C(=O)N2C [Compound 095, (1R,4R)-4-((2-carbamoyl-5-(6,6-dimethyl-4-oxo-3-(trifluoromethyl)-4,5,6,7-tetrahydro-1H-indazol-1-yl)phenyl)amino)cyclohexyl (3-(1-(3-ethoxy-4-((5-methyl-11-(methylsulfonyl)-6-oxo-6,11-dihydro-5H-benzo[e]pyrimido[5,4-b][1,4]diazepin-2-yl)amino)phenyl)piperidine-4-carboxamido)propyl)carbamate] | > 1 µM | > 1 µM | 0.1 to 1 µM
8 | CCOc1cc(N2CCC(C(=O)N3CCC(Cc4ccc(CN(C)Cc5ccc(-n6c(C(=O)NCC(F)(F)F)nnc6-c6cc(CC)c(O)cc6O)cc5)cc4)CC3)CC2)ccc1Nc1ncc2c(n1)N(S(C)(=O)=O)c1ccccc1C(=O)N2C [Compound 097, 4-(4-(((4-((1-(1-(3-ethoxy-4-((5-methyl-11-(methylsulfonyl)-6-oxo-6,11-dihydro-5H-benzo[e]pyrimido[5,4-b][1,4]diazepin-2-yl)amino)phenyl)piperidine-4-carbonyl)piperidin-4-yl)methyl)benzyl)(methyl)amino)methyl)phenyl)-5-(5-ethyl-2,4-dihydroxyphenyl)-N-(2,2,2-trifluoroethyl)-4H-1,2,4-triazole-3-carboxamide] | 0.1 to 1 µM | > 1 µM | < 0.1 µM
9 | CCOc1cc(N2CCC(C(=O)N3CCN(C(=O)O[C@H]4CC[C@H](Nc5cc(-n6nc(C(F)(F)F)c7c6CC(C)(C)CC7=O)ccc5C(N)=O)CC4)CC3)CC2)ccc1Nc1ncc2c(n1)N(S(C)(=O)=O)c1ccccc1C(=O)N2C [Compound 106, (1R,4R)-4-((2-carbamoyl-5-(6,6-dimethyl-4-oxo-3-(trifluoromethyl)-4,5,6,7-tetrahydro-1H-indazol-1-yl)phenyl)amino)cyclohexyl 4-(1-(3-ethoxy-4-((5-methyl-11-(methylsulfonyl)-6-oxo-6,11-dihydro-5H-benzo[e]pyrimido[5,4-b][1,4]diazepin-2-yl)amino)phenyl)piperidine-4-carbonyl)piperazine-1-carboxylate] | > 1 µM | > 1 µM | 0.1 to 1 µM

Other lines, results leading:

Row | IC50 [1] | EC50 [2] | EC50 [3] | Compound
10 | < 0.1 µM | > 1 µM | 0.1 to 1 µM | CCCc1cc(-c2nnc(C(=O)NCCN3CCCCC3)n2-c2ccc(CN3CCN(CC4CCN(C(=O)C5CCN(c6ccc(Nc7ncc8c(n7)N(S(C)(=O)=O)c7ccccc7C(=O)N8C)c(OCC)c6)CC5)CC4)CC3)cc2)c(O)cc1O [Compound 093, 5-(2,4-dihydroxy-5-propylphenyl)-4-(4-((4-((1-(1-(3-ethoxy-4-((5-methyl-11-(methylsulfonyl)-6-oxo-6,11-dihydro-5H-benzo[e]pyrimido[5,4-b][1,4]diazepin-2-yl)amino)phenyl)piperidine-4-carbonyl)piperidin-4-yl)methyl)piperazin-1-yl)methyl)phenyl)-N-(2-(piperidin-1-yl)ethyl)-4H-1,2,4-triazole-3-carboxamide]
11 | 0.1 to 1 µM | > 1 µM | 0.1 to 1 µM | CCOc1cc(N2CCC(C(=O)N3CCN(CCOc4ccc(Nc5cc(-n6nc(C(F)(F)F)c7c6CC(C)(C)CC7=O)ccc5C(N)=O)cc4)CC3)CC2)ccc1Nc1ncc2c(n1)N(S(C)(=O)=O)c1ccccc1C(=O)N2C [Compound 094, 4-(6,6-dimethyl-4-oxo-3-(trifluoromethyl)-4,5,6,7-tetrahydro-1H-indazol-1-yl)-2-((4-(2-(4-(1-(3-ethoxy-4-((5-methyl-11-(methylsulfonyl)-6-oxo-6,11-dihydro-5H-benzo[e]pyrimido[5,4-b][1,4]diazepin-2-yl)amino)phenyl)piperidine-4-carbonyl)piperazin-1-yl)ethoxy)phenyl)amino)benzamide]
12 | > 1 µM | > 1 µM | 0.1 to 1 µM | CCOc1cc(N2CCC(C(=O)N3CCC(Cc4ccc(CN(C)Cc5ccc(-n6c(C(=O)NCC(F)(F)F)nnc6-c6cc(C)c(O)cc6O)cc5)cc4)CC3)CC2)ccc1Nc1ncc2c(n1)N(S(C)(=O)=O)c1ccccc1C(=O)N2C [Compound 100, 5-(2,4-dihydroxy-5-methylphenyl)-4-(4-(((4-((1-(1-(3-ethoxy-4-((5-methyl-11-(methylsulfonyl)-6-oxo-6,11-dihydro-5H-benzo[e]pyrimido[5,4-b][1,4]diazepin-2-yl)amino)phenyl)piperidine-4-carbonyl)piperidin-4-yl)methyl)benzyl)(methyl)amino)methyl)phenyl)-N-(2,2,2-trifluoroethyl)-4H-1,2,4-triazole-3-carboxamide]
13 | 0.1 to 1 µM | 0.1 to 1 µM | < 0.1 µM | CCOc1cc(N2CCC(C(=O)N3CCC(CN4CCN(Cc5ccc(-n6c(C(=O)NC(C)C(F)(F)F)nnc6-c6cc(CC)c(O)cc6O)cc5)CC4)CC3)CC2)ccc1Nc1ncc2c(n1)N(C)c1ccccc1C(=O)N2C (stereo not drawn) [Compound 114, 4-(4-((4-((1-(1-(4-((5,11-dimethyl-6-oxo-6,11-dihydro-5H-benzo[e]pyrimido[5,4-b][1,4]diazepin-2-yl)amino)-3-ethoxyphenyl)piperidine-4-carbonyl)piperidin-4-yl)methyl)piperazin-1-yl)methyl)phenyl)-5-(5-ethyl-2,4-dihydroxyphenyl)-N-(1,1,1-trifluoropropan-2-yl)-4H-1,2,4-triazole-3-carboxamide]
